{
  "source": "paper PMC5711933",
  "about": "“Intracellular biomass flocculation as a key mechanism of rapid bacterial killing by cationic, amphipathic antimicrobial peptides and peptoids” (Scientific Reports, 2017)",
  "key": {"[1]": {"test_system": "Bioluminescent P. aeruginosa", "assay_type": "cell-based, Pseudomonas aeruginosa", "settings": "12.5 µM, LB, 37 °C", "procedure": "The decrease in bioluminescence at 37 °C was measured for a range of concentrations from 0 – 100 μM (Supp. Figs. S6 and S7).\nBioluminescent P. aeruginosa [73] was grown at 37 °C in Luria-Bertani (LB) broth. […] In a 96-well plate, 50 µL of P. aeruginosa solution (1 × 10^6 CFU/mL) was added to 50 µL of antimicrobial solution, and the bioluminescence was measured using an IVIS imaging system (a Xenogen product from Caliper Life Sciences, Hopkinton, MA) at 10 min intervals for 2 h. The reported values are the average of three independent experiments with two replicates each."}, "E. coli ATCC 35218 [2]": {"test_system": "E. coli ATCC 35218", "test": "Bacterial count by plating after treatment, before TEM sample preparation", "assay_type": "cell-based", "settings": "1 hour in PBS pH 7.4, control 1 × 10^8 CFU/mL", "procedure": "E. coli ATCC 35218, grown overnight at 35 °C in Mueller-Hinton broth (MHB), were resuspended in 1X (150 mM) PBS, pH 7.4, and diluted to a concentration of 1 × 10^8 CFU/mL. Aqueous peptide/peptoid stock solutions were added to 1 mL aliquots of the suspension to the desired final concentration. After 1 hour, small volumes of each sample were serially diluted, plated, and incubated overnight at 35 °C, to be counted the following day. The remaining volume of each sample was centrifuged, and the pellet resuspended and enrobed in 5–10 µL of 2% low-melting agarose (gelling temperature 25° ± 5 °C) then drawn up into the tip of a Pasteur pipette. The solidified rods were extruded into fixative (2% glutaraldehyde, 2% paraformaldehyde, 50 mM PBS, pH 7.4). […] 50 nm thin sections of embedded samples were cut using a diamond knife, stained for 5 min in 5% aqueous uranyl acetate, then rinsed in H2O. Sections were examined in a JEOL 1230 TEM. Experimental conditions were each repeated in at least two independent trials. For each replicate of each sample, bacteria across the thin section were first surveyed to determine morphological characteristics representative of that sample, then images were captured of at least five bacteria displaying those morphologies with an emphasis on clean (i.e., orthogonal) transverse and/or longitudinal sections. Each image shown is thus representative of the ultrastructural characteristics observed in bacteria throughout a given sample and between replicates."}, "[3]": {"test": "RP-HPLC elution (% ACN) as measure of hydrophobicity", "assay_type": "physicochemical", "settings": "chromatographic hydrophobicity; gradient of 5–95% acetonitrile (ACN) over 45 minutes, C18 column, 0.2 mL/min; average of three replicates"}, "EGFP-Luc plasmid": {"test_system": "EGFP-Luc plasmid", "test": "DNA retardation assay (gel electrophoresis)", "assay_type": "binding", "settings": "EGFP-Luc plasmid in TBS, complexes 20 min at room temperature, 1–2% agarose gel", "procedure": "DNA retardation was analyzed by gel electrophoresis. Peptoid/peptide-DNA complexes were formed by adding 10 µL of peptide/peptoid solution of varying concentrations to 10 µL DNA solution (EGFP-Luc plasmid in Tris-buffered saline (TBS) buffer), and the resulting solution was mixed by gentle aspiration. Complexes were incubated for 20 min at room temperature. After complex formation, 20 µL of each sample were loaded onto a 1–2% agarose gel in Tris/borate/EDTA (TBE) buffer, which ran at 120 V for 15 min. DNA bands on the gel were visualized under UV light by ethidium bromide staining."}, "[4]": {"test_system": "E. coli bacterial ribosomes", "test": "Aggregation of bacterial ribosomes (optical density at 550 nm)", "assay_type": "biochemical", "settings": "1 µM ribosome solution, antimicrobial up to 800 µM, 10 min, λ = 550 nm", "procedure": "In a microcentrifuge tube, 5 µl of 1 µM purified bacterial ribosome solution (~40X diluted (v/v) from their intracellular concentration in bacterial cytosol)[62] was incubated with 5 µl of antimicrobial solution in a concentration range of 0–800 µM for 10 min. The absorbance of the solution was measured by UV-Vis spectroscopy at λ = 550 nm by a spectrophotometer (ND-1000, Thermo Scientific, Wilmington, DE). The values are reported as the average of three independent experiments with three replicates each."}, "P. aeruginosa": {"test_system": "P. aeruginosa", "test": "Bacterial plating of P. aeruginosa (CFU)", "assay_type": "cell-based, Pseudomonas aeruginosa", "settings": "12.5 µM, LB, 37 °C, average of three replicates", "procedure": "To further explore the mechanism of action, we studied the killing kinetics of AMPs, ampetoids, and conventional antibiotics against luciferase-expressing Pseudomonas aeruginosa, another Gram-negative bacterium, against which these peptoids have previously proven to be effective[61]. The decrease in bioluminescence at 37 °C was measured for a range of concentrations from 0 – 100 μM (Supp. Figs. S6 and S7).\nThe bacterial counts were determined by plating serial dilutions of samples on LB plates and counting bacterial colonies. The reported values are the average of three replicates."}, "Erythrocytes": {"test_system": "Erythrocytes", "test": "Hemolysis assay", "assay_type": "cell-based", "settings": "human erythrocytes in PBS pH 7.4, 1 h at 37 °C, A350; three independent replicates (two for LL-37 and fowlicidin-1)", "protocol": "The plate was then centrifuged at 1200 g for 15 min, 100 μL of the supernatant from each well transferred to a fresh microtiter plate, and A350 measured."}, "E. coli ATCC 35218 [5]": {"test_system": "E. coli ATCC 35218", "assay_type": "cell-based", "settings": "CAMHB, 35 °C, 16 h, final 5 × 10^5 CFU/mL; reproducible between three independent replicates", "procedure": "MICs were determined according to CLSI M7-A6 protocols in a 96-well microtiter plate. In test wells, 50 μL bacterial inoculum (1 × 10^6 CFU/ml) in cation-adjusted Mueller-Hinton broth (CAMHB) was added to 50 μL peptoid solution in CAMHB (prepared by 1:2 serial dilutions). Positive controls contained 50 μL inoculum and 50 μL CAMHB without peptoid. […] MIC values reported were reproducible between three independent experimental replicates, each consisting of two parallel trials."}, "[6]": {"settings": "average of three independent experiments with two replicates each"}},
  "note": "Marks after values point to notes of the source that are not given here. Non-standard residues stand in square brackets, D forms with d. Residues, ends and D or L forms follow the SMILES beside them. Nspe = C[C@H](NCC(=O)O)c1ccccc1; Nphe = O=C(O)CNCc1ccccc1; Nlys = NCCCCNCC(=O)O",
  "data": [
    {"compound": "NCCCCNCC(=O)N(CC(=O)N(CC(=O)N(CCCCN)CC(=O)N(CC(=O)N(CC(=O)N(CCCCN)CC(=O)N(CC(=O)N(CC(=O)N(CCCCN)CC(=O)N(CC(=O)N(CC(N)=O)Cc1ccccc1)Cc1ccccc1)Cc1ccccc1)Cc1ccccc1)Cc1ccccc1)Cc1ccccc1)Cc1ccccc1)Cc1ccccc1", "note": "[1 achiral] (H-[Nlys][Nphe][Nphe][Nlys][Nphe][Nphe][Nlys][Nphe][Nphe][Nlys][Nphe][Nphe]-NH2)", "values": [
      {"measurement": "Decrease in bioluminescence within 10 min", "setting": "[1]; 10 min, average of three independent experiments with two replicates each", "value": "~ 99.9%"},
      {"measurement": "TEM: Bacterial count after 10 µM treatment (% of control)", "setting": "E. coli ATCC 35218 [2]", "value": "100 % of control"},
      {"measurement": "TEM: Bacterial count after 100 µM treatment (% of control)", "setting": "E. coli ATCC 35218 [2]", "value": "0.03 % of control"},
      {"measurement": "% ACN at RP-HPLC elution", "setting": "[3]", "value": 60.4, "unit": "%"},
      {"measurement": "Retardation assay: mass of compound required to completely retard migration of 1 µg of DNA", "setting": "EGFP-Luc plasmid", "value": 1.5, "unit": "µg"}
    ]},
    {"compound": "C[C@@H](c1ccccc1)N(CC(N)=O)C(=O)CN(CCCCN)C(=O)CN(CCCCN)C(=O)CN(C(=O)CN(C(=O)CN(CCCCN)C(=O)CN(C(=O)CN(CCCCN)C(=O)CN(CCCCN)C(=O)CN(C(=O)CN(C(=O)CNCCCCN)[C@@H](C)c1ccccc1)[C@@H](C)c1ccccc1)[C@@H](C)c1ccccc1)[C@@H](C)c1ccccc1)[C@@H](C)c1ccccc1", "note": "[1-NLys5,11] (H-[Nlys][Nspe][Nspe][Nlys][Nlys][Nspe][Nlys][Nspe][Nspe][Nlys][Nlys][Nspe]-NH2; N-terminus and C-terminus assumed)", "values": [
      {"measurement": "TEM: Bacterial count after 10 µM treatment (% of control)", "setting": "E. coli ATCC 35218 [2]", "value": "100 % of control"},
      {"measurement": "TEM: Bacterial count after 100 µM treatment (% of control)", "setting": "E. coli ATCC 35218 [2]", "value": "30 % of control"},
      {"measurement": "% ACN at RP-HPLC elution", "setting": "[3]", "value": 51.2, "unit": "%"},
      {"measurement": "Retardation assay: mass of compound required to completely retard migration of 1 µg of DNA", "setting": "EGFP-Luc plasmid", "value": 1.0, "unit": "µg"}
    ]},
    {"compound": "C[C@@H](c1ccccc1)N(CC(N)=O)C(=O)CN(C(=O)CN(CCCCN)C(=O)[C@@H]1CCCN1C(=O)CN(C(=O)CN(CCCCN)C(=O)CN(C(=O)CN(C(=O)CN(CCCCN)C(=O)CN(C(=O)CN(C(=O)CNCCCCN)[C@@H](C)c1ccccc1)[C@@H](C)c1ccccc1)[C@@H](C)c1ccccc1)[C@@H](C)c1ccccc1)[C@@H](C)c1ccccc1)[C@@H](C)c1ccccc1", "note": "[1-Pro9] (H-[Nlys][Nspe][Nspe][Nlys][Nspe][Nspe][Nlys][Nspe]P[Nlys][Nspe][Nspe]-NH2)", "values": [
      {"measurement": "Decrease in bioluminescence at 2 h", "setting": "[1]; [6]", "value": "~ 20%"},
      {"measurement": "% ACN at RP-HPLC elution", "setting": "[3]", "value": 62.6, "unit": "%"}
    ]},
    {"compound": "O=C(O)c1cn(C2CC2)c2cc(N3CCNCC3)c(F)cc2c1=O", "note": "[Ciprofloxacin]", "values": [
      {"measurement": "Aggregation of ribosomes (in words)", "setting": "[4]", "value": "no aggregation"},
      {"measurement": "Decrease in bioluminescence at 1 h", "setting": "[1]; 1 h, average of three independent experiments with two replicates each", "value": "~ 97%"},
      {"measurement": "Killing of bacteria within 10 minutes (CFU plating, in words)", "setting": "P. aeruginosa", "value": "did not kill bacteria"}
    ]},
    {"compound": "CC[C@H](C)[C@H](NC(=O)[C@H](CCCCN)NC(=O)[C@H](CCC(=O)O)NC(=O)[C@H](CCCCN)NC(=O)[C@H](CO)NC(=O)[C@H](CCCCN)NC(=O)[C@H](CCCNC(=N)N)NC(=O)[C@H](Cc1ccccc1)NC(=O)[C@H](Cc1ccccc1)NC(=O)[C@H](CC(=O)O)NC(=O)CNC(=O)[C@H](CC(C)C)NC(=O)[C@@H](N)CC(C)C)C(=O)NCC(=O)N[C@@H](CCCCN)C(=O)N[C@@H](CCC(=O)O)C(=O)N[C@@H](Cc1ccccc1)C(=O)N[C@@H](CCCCN)C(=O)N[C@@H](CCCNC(=N)N)C(=O)N[C@H](C(=O)N[C@H](C(=O)N[C@@H](CCC(N)=O)C(=O)N[C@@H](CCCNC(=N)N)C(=O)N[C@H](C(=O)N[C@@H](CCCCN)C(=O)N[C@@H](CC(=O)O)C(=O)N[C@@H](Cc1ccccc1)C(=O)N[C@@H](CC(C)C)C(=O)N[C@@H](CCCNC(=N)N)C(=O)N[C@@H](CC(N)=O)C(=O)N[C@@H](CC(C)C)C(=O)N[C@H](C(=O)N1CCC[C@H]1C(=O)N[C@@H](CCCNC(=N)N)C(=O)N[C@H](C(=O)N[C@@H](CCC(=O)O)C(=O)N[C@@H](CO)C(=O)O)[C@@H](C)O)C(C)C)[C@@H](C)CC)C(C)C)[C@@H](C)CC", "note": "[LL-37, reference compound]", "values": [
      {"measurement": "HD10 (hemolytic dose; concentration for 10% hemolysis)", "setting": "Erythrocytes", "value": ">100/>100^§ µM"},
      {"measurement": "HD50 (hemolytic dose; concentration for 50% hemolysis)", "setting": "Erythrocytes", "value": ">100/>100^§ µM"},
      {"measurement": "E. coli ATCC 35218 MIC", "setting": "E. coli ATCC 35218 [5]", "value": 12.5, "unit": "µM"}
    ]},
    {"compound": "CC[C@H](C)[C@H](NC(=O)CN)C(=O)NCC(=O)N[C@@H](C)C(=O)N[C@H](C(=O)N[C@@H](CC(C)C)C(=O)N[C@@H](CCCCN)C(=O)N[C@H](C(=O)N[C@@H](CC(C)C)C(=O)N[C@H](C(=O)N[C@H](C(=O)NCC(=O)N[C@@H](CC(C)C)C(=O)N1CCC[C@H]1C(=O)N[C@@H](C)C(=O)N[C@@H](CC(C)C)C(=O)N[C@H](C(=O)N[C@@H](CO)C(=O)N[C@@H](Cc1c[nH]c2ccccc12)C(=O)N[C@H](C(=O)N[C@@H](CCCCN)C(=O)N[C@@H](CCCNC(=N)N)C(=O)N[C@@H](CCCCN)C(=O)N[C@@H](CCCNC(=N)N)C(=O)N[C@@H](CCC(N)=O)C(=O)N[C@@H](CCC(N)=O)C(N)=O)[C@@H](C)CC)[C@@H](C)CC)[C@@H](C)O)[C@@H](C)O)C(C)C)C(C)C", "note": "[melittin, reference compound]", "values": [
      {"measurement": "E. coli ATCC 35218 MIC", "setting": "E. coli ATCC 35218 [5]", "value": 12.5, "unit": "µM"}
    ]},
    {"compound": "CN(C)[C@@H]1C(O)=C(C(N)=O)C(=O)[C@@]2(O)C(O)=C3C(=O)c4c(O)cccc4[C@@](C)(O)[C@H]3C[C@@H]12", "note": "[tetracycline]", "values": [
      {"measurement": "Aggregation of ribosomes (in words)", "setting": "[4]", "value": "no aggregation"},
      {"measurement": "Decrease in bioluminescence at 2 h", "setting": "[1]; [6]", "value": "~ 97%"},
      {"measurement": "Killing of bacteria within 10 minutes (CFU plating, in words)", "setting": "P. aeruginosa", "value": "did not kill bacteria"}
    ]},
    {"compound": "oligomycin A", "values": [
      {"measurement": "Aggregation of ribosomes (in words)", "setting": "[4]", "value": "no aggregation"},
      {"measurement": "Activity in bioluminescence kinetics assay (in words)", "setting": "[1]; up to 2 h", "value": "inactive"},
      {"measurement": "Killing of bacteria within 10 minutes (CFU plating, in words)", "setting": "P. aeruginosa", "value": "did not kill bacteria"}
    ]}
  ]
}
